# From ChEMBL document CHEMBL5512690, “Identification and Validation of PKR as a Direct Target for the Novel Sulfonamide-Substituted Tetrahydroquinoline Nonselective Inhibitor of the NLRP3 Inflammasome” (J Med Chem, 2024)
# Experiments:
# [1] = Cytotoxicity against human differentiated THP-M cells derived PMA induced THP-1 cells measured after 72 hrs by MTT assay
# [2] = target: NACHT, LRR and PYD domains-containing protein 3 (Homo sapiens, UniProt Q96P20)
# Chain of NACHT, LRR and PYD domains-containing protein 3 (Q96P20 whole entry, the tested form may be a part): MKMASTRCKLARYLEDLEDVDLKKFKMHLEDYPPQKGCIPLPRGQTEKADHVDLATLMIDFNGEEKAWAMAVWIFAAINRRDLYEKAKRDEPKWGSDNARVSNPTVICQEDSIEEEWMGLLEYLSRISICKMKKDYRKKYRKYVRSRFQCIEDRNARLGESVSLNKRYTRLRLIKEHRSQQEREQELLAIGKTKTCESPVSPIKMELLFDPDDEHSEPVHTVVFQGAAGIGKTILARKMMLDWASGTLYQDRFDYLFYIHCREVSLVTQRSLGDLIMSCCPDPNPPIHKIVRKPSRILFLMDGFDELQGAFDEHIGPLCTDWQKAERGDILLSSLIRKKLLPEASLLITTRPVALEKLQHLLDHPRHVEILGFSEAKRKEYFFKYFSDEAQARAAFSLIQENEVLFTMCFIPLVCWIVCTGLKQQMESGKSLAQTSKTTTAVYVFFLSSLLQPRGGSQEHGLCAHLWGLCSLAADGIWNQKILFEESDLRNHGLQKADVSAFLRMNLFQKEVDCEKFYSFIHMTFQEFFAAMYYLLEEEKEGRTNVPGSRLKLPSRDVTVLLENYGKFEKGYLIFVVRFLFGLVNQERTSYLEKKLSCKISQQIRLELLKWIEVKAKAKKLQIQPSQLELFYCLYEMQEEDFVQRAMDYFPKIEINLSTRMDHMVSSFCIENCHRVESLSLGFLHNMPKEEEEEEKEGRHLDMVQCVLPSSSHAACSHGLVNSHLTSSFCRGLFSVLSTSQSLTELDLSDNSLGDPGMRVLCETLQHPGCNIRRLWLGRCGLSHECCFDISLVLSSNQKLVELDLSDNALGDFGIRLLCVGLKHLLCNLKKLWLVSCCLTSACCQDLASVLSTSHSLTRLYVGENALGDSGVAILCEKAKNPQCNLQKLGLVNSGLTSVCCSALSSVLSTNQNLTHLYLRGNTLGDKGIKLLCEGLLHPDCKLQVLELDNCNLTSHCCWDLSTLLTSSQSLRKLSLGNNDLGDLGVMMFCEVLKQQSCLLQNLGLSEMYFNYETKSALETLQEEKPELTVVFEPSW
# Description: Inhibition of NLRP3 inflammasome activation in LPS primed human differentiated THP-M cells derived PMA induced THP-1 cells assessed as inhibition of IL-1 beta level preincubated with compound for 24 hrs followed by LPS stimulation for 3 hrs and further incubated with ATP for 1 hr by ELISA method
IC50 [2],SMILES,CC50 [1]
,COC(=O)c1ccsc1S(=O)(=O)Nc1ccc2c(c1)N(S(C)(=O)=O)CCC2,> 100 µM
5.33 µM,O=C(O)c1ccc(/C=C2\SC(=S)N(Cc3cccc(C(F)(F)F)c3)C2=O)cc1,> 100 µM
,CS(=O)(=O)N1CCCc2ccc(NS(=O)(=O)c3cccc4ccccc34)cc21,> 100 µM
,CS(=O)(=O)N1CCCc2ccc(NS(=O)(=O)c3ccc4ccccc4c3)cc21,> 100 µM
,CS(=O)(=O)Nc1ccc2c(c1)N(S(C)(=O)=O)CCC2,> 100 µM
,CCS(=O)(=O)Nc1ccc2c(c1)N(S(C)(=O)=O)CCC2,> 100 µM
,CS(=O)(=O)N1CCCc2ccc(NS(=O)(=O)c3ccc(F)cc3)cc21,> 100 µM
,CCCCS(=O)(=O)Nc1ccc2c(c1)N(S(C)(=O)=O)CCC2,> 100 µM
,CS(=O)(=O)N1CCCc2ccc(NS(=O)(=O)c3ccc([N+](=O)[O-])cc3)cc21,> 100 µM
,CC(=O)c1ccc(S(=O)(=O)Nc2ccc3c(c2)N(S(C)(=O)=O)CCC3)cc1,> 100 µM
,CS(=O)(=O)N1CCCc2ccc(NS(=O)(=O)c3ccc(Br)cc3)cc21,> 100 µM
,CS(=O)(=O)N1CCCc2ccc(NS(=O)(=O)c3ccccc3[N+](=O)[O-])cc21,> 100 µM
,CS(=O)(=O)N1CCCc2ccc(NS(=O)(=O)c3ccc(C#N)cc3)cc21,> 100 µM
,CS(=O)(=O)N1CCCc2ccc(NS(=O)(=O)c3cc(C(F)(F)F)cc(C(F)(F)F)c3)cc21,> 100 µM
,CS(=O)(=O)N1CCCc2ccc(NS(=O)(=O)c3ccccn3)cc21,> 100 µM
,COc1ccc(S(=O)(=O)Nc2ccc3c(c2)N(S(C)(=O)=O)CCC3)cc1,> 100 µM
,CS(=O)(=O)N1CCCc2ccc(NS(=O)(=O)c3cccc4cccnc34)cc21,> 100 µM
,CCCS(=O)(=O)Nc1ccc2c(c1)N(S(C)(=O)=O)CCC2,> 100 µM
,CS(=O)(=O)N1CCCc2ccc(NS(=O)(=O)Cc3ccccc3)cc21,> 100 µM
,CS(=O)(=O)N1CCCc2ccc(NS(=O)(=O)c3cccc(F)c3)cc21,> 100 µM
,CC(C)(C)c1ccc(S(=O)(=O)Nc2ccc3c(c2)N(S(C)(=O)=O)CCC3)cc1,> 100 µM
,Cc1ccc(S(=O)(=O)Nc2ccc3c(c2)N(S(C)(=O)=O)CCC3)cc1,> 100 µM
,CS(=O)(=O)N1CCCc2ccc(NS(=O)(=O)c3ccc(Cl)cc3)cc21,> 100 µM
,CS(=O)(=O)N1CCCc2ccc(NS(=O)(=O)c3cccs3)cc21,> 100 µM
,CS(=O)(=O)N1CCCc2ccc(NS(=O)(=O)c3ccccc3F)cc21,> 100 µM
,CS(=O)(=O)N1CCCc2ccc(NS(=O)(=O)c3ccc(C(F)(F)F)cc3)cc21,> 100 µM
,COC(=O)c1ccc(S(=O)(=O)Nc2ccc3c(c2)N(S(C)(=O)=O)CCC3)cc1,> 100 µM
,CS(=O)(=O)N1CCCc2ccc(NS(=O)(=O)c3ccccc3)cc21,> 100 µM
,CC(=O)Nc1ccc(S(=O)(=O)Nc2ccc3c(c2)N(S(C)(=O)=O)CCC3)cc1,> 100 µM
